Consider 21 molecules from patent publication US12240828B2, “Heteroaromatic compounds as vanin inhibitors” (Boehringer Ingelheim International GmbH, priority 2018, dated 2025).

For experiment [1], the system named is Pantetheinase (vanin). The experiment is described as follows: Human Whole Blood assay. In kind it is cell-based. Particulars: pantethine substrate, pantothenic acid formation by RapidFire MS, read-out: HWB IC50. The procedure: Human Whole Blood assay: Pantetheinase (vanin) converts panteheine into pantothenic acid and cysteamine. Accordingly, in the described protocol vanin activity is quantified by formation of pantothenic acid after pantetheine supplementation via pantethine. The assay is applicable to identify vanin inhibitors. Compound stocks are dissolved in DMSO at 10 mM. Further dilutions are performed in RPMI 1640 medium (Gibco, #A-10491-01) and final concentrations in the assay are 0.032 nM-500 nM.
Human blood is drawn into a blood bag (1% heparin, 50 I.E./mL). Blood is aliquoted into cavities of 96-deep-well plates at 290 μL and mixed with 10 μL compound solution or vehicle (30 sec at 1400 rpm on a shaker). Equilibration follows at room temperature, 250 rpm and for 30 min. The assay is starts by adding 10 μL of substrate solution (20 μM pantethine in 1 mM DTT, 0.0025% Brij-35, 50 mM HEPES, pH7.5) to each well, except for some blank wells which receive […] substrate buffer (1 mM DTT, 0.0025% Brij-35, 50 mM HEPES, pH7.5) only. Samples are thoroughly shaken (30 sec, 1400 rpm) and reaction is allowed to take place at room temperature, 250 rpm and for 5 min. The reaction is stopped by addition of a vanin tool inhibitor in excess (BI-1 total conc. 10 μM). Centrifugation of the plate follows at 4° C., 665 G for 10 min. Then the blood plasma samples (100 μL) are transferred into another 96-deep-well plate and proteins are precipitated (5 min on ice) by adding 100 μL of ice cold precipitation solution (1 μM labelled pantothenic acid (di-β-alanine-13C6,15N2 calcium salt, Sigma, #705837) in acetonitrile). Afterwards the plate is centrifuged (4° C., 3220 G, 10 min) and supernatants (50 μL) are collected into another 96-deep-well plate and mixed (10 sec, 1400 rpm) with 150 μL ice cold formic acid (0.1%, Carl Roth GmbH+Co.KG, #CP03.1). The formation of pantothenic acid is detected by RapidFire Mass Spectrometry. A TripleQuad 6500+ (ABSciex, Germany) is equipped with an LC-1290 system, a RapidFire autosampler (Agilent, Germany) and a C18 cartridge Type C 12 μL (Agilent Cat #G9526-80000). Mobile phase A is consisting of 0.09% formic acid and 0.01% trifluoroacetic acid in water and mobile phase B of 0.09% formic acid and 0.01% trifluoroacetic acid in acetonitrile/methanol/water=47.5/47.5/5.

Experiment [2] addresses T1, FLAG-tagged Vanin-1 (AA 22-493, T26I) (Homo sapiens, UniProt O95497, T26I).
T1 construct: FLAG-tagged Vanin-1 (AA 22-493, T26I, produced internally); FLAG; made in house
T1 sequence (O95497 22-493 T26I): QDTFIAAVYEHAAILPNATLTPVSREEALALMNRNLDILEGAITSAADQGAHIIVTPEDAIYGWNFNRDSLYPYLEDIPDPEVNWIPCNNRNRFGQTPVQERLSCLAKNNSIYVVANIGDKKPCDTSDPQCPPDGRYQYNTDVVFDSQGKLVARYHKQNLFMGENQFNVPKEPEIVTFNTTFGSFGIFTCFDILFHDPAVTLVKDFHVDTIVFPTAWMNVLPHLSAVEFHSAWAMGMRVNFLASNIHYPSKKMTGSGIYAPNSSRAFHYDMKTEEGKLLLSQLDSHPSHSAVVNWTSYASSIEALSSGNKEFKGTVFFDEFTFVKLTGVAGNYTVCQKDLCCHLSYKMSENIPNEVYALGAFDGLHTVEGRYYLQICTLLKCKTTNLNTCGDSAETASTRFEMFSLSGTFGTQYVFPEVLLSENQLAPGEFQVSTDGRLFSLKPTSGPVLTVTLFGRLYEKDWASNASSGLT
Briefly: Vanin-1 enzymatic assay. In kind it is biochemical. Particulars: 0.1 nM Vanin-1, 3 μM D-pantethine, pantothenic acid formation by RapidFire MS; geometric mean if multiple measurements; read-out: VNN-1 IC50. How it is done: The test compounds are dissolved in 100% DMSO at a concentration of 10 mM and in a first step diluted in DMSO to a concentration of 5 mM, followed by serial dilution steps in 100% DMSO. Dilution factor and number of dilution steps may vary according to needs. Typically 8 different concentrations by 1:5 dilutions are prepared, a further intermediate dilutions of the substances is carried out with assay buffer resulting in 1% final DMSO concentration in the assay.
0.1 nM of FLAG-tagged Vanin-1 (AA 22-493, T26I, produced internally) and test compounds are incubated at room temperature for 20 minutes in assay buffer (1 mM DTT, 0.0025% Brij-35, 50 mM HEPES, pH7.5). D-Pantethine (Sigma, Cat #P2125-5G) in assay buffer is added (final concentration 3 μM) and incubated for additional 30 minutes at room temperature. Total assay volume typically is 40 μl but might be adjusted according to needs. Reaction is stopped by adding equal volume of stop solution as the reaction mixture to reach 100 nM HD-pantothenic acid (as an internal standard) and 1% TFA. Assay plates are centrifuged for 2 minutes and the formation of pantothenic acid is detected by RapidFire Mass Spectrometry (mobile phase A: 0.1% formic acid and 0.01% trifluoroacetic acid in water; mobile phase B: 47.5% acetonitrile, 47.5% methanol, 0.1% formic acid and 0.01% trifluoroacetic acid in water) using a C18, 12 μL cartridge (Agilent Cat #G9205A).
The values given in Table I result from measurements of one or more samples. In case of multiple measurements the geometric mean values are given.

As to `CC(=O)N(C)[C@H]1CCN(C(=O)c2ccc(NCc3cccc(Cl)c3)nc2)C1` [Example 1.3], the values for the IC50 in experiment [1] and in experiment [2] were 1030 pM and 1020 pM, respectively.

As for `CC(=O)N(C)[C@H]1CCN(C(=O)c2ccc(NCc3ccccc3Cl)nc2)C1` [Example 1.4], the 50% inhibitory concentration (IC50) (as a rule, the concentration that inhibits the measured activity by half) in experiment [1] came out at 4850 pM; in experiment [2], 480 pM.

With `Cc1ccncc1CNc1ccc(C(=O)N2CC[C@H](N(C)C(=O)C3CC3)C2)cn1` [Example 1.5], the concentration for half-maximal inhibition (IC50) in experiment [1] is 1590 pM; in experiment [2], 70 pM.

Turning to `CC(=O)N(C)[C@H]1CCN(C(=O)c2ccc(NCc3ccccc3)nc2)C1` [Example 1.6], the IC50 in experiment [1] came to 2340 pM; in experiment [2], 810 pM.

Turning to `CN(C(=O)C1CC1)[C@H]1CCN(C(=O)c2ccc(NCc3cccnc3)nc2)C1` [Example 1.8], the results for the concentration for half-maximal inhibition (IC50) in experiment [1] and in experiment [2] were 1690 pM and 120 pM, respectively.

Take `Cc1ccncc1CNc1ccc(C(=O)N2CC[C@H](N(C)C(=O)C3(C)CCC3)C2)cn1` [Example 1.9]: the half-maximal inhibitory concentration (IC50) worked out at 1900 pM in experiment [1] and 120 pM in experiment [2].

Regarding `COc1ccncc1CNc1ccc(C(=O)N2CC[C@H](N(C)C(=O)C3CC3)C2)cn1` [Example 1.10], the values for the IC50 in experiment [1] and in experiment [2] were 1240 pM and 140 pM, respectively.

Take `CC(=O)N(C)[C@H]1CCN(C(=O)c2ccc(N[C@@H](C)c3ccc(Cl)nc3)nc2)C1` [Example 1.11, N-[(3S)-1-(6-{[(1S)-1-(6-chloropyridin-3-yl)ethyl]-amino}pyridine-3-carbonyl)pyrrolidin-3-yl]-N-methylacetamide]: the figures for the IC50 in experiment [1] and in experiment [2] were 1900 pM and 150 pM, respectively.

Regarding `CC(=O)N(C)[C@H]1CCN(C(=O)c2ccc(N[C@@H](C)c3cccc(C#N)c3)nc2)C1` [Example 1.12], the IC50 is 6130 pM in experiment [1] and 160 pM in experiment [2].

As for `CN(C(=O)C1(C)CCC1)[C@H]1CCN(C(=O)c2ccc(NCc3cccnc3)nc2)C1` [Example 1.14], the figures for the IC50 in experiment [1] and in experiment [2] were 8700 pM and 180 pM, respectively.

For `Cc1ncccc1CNc1ccc(C(=O)N2CC[C@H](N(C)C(=O)C3CC3)C2)cn1` [Example 1.15], the IC50 was 1520 pM in experiment [1] and 210 pM in experiment [2].

Consider `CC(=O)N(C)[C@H]1CCN(C(=O)c2ccc(NC3(c4cncc(C(F)(F)F)c4)CC3)nc2)C1` [Example 1.17], for which the IC50 in experiment [1] is 5590 pM; in experiment [2] it was 210 pM.

On to `Cc1ncccc1CNc1ccc(C(=O)N2CC[C@H](N(C)C(=O)C3(C)CCC3)C2)cn1` [Example 1.18], for which the figures for the 50% inhibitory concentration (IC50) in experiment [1] and in experiment [2] were 1770 pM and 220 pM, respectively.

For `CC(=O)N(C)[C@H]1CCN(C(=O)c2ccc(N[C@@H](C)c3cccc(S(N)(=O)=O)c3)nc2)C1` [Example 1.19], the half-maximal inhibitory concentration (IC50) in experiment [1] was 2630 pM; in experiment [2], 220 pM.

Consider `CC(=O)N(C)[C@H]1CCN(C(=O)c2ccc(NC3(c4ccc(C(F)(F)F)nc4)CC3)nc2)C1` [Example 1.20], for which the results for the IC50 in experiment [1] and in experiment [2] were 4740 pM and 230 pM, respectively.

For the molecule `CNS(=O)(=O)c1cccc(C(C)Nc2ccc(C(=O)N3CC[C@H](N(C)C(C)=O)C3)cn2)c1` (stereo partly drawn) [Example 1.21], the half-maximal inhibitory concentration (IC50) amounted to 800 pM in experiment [1] and 240 pM in experiment [2].

In the case of `COc1ccncc1CNc1ccc(C(=O)N2CC[C@H](N(C)C(=O)C3(C)CCC3)C2)cn1` [Example 1.22], the half-maximal inhibitory concentration (IC50) in experiment [1] is 2510 pM; in experiment [2], 240 pM.

Consider `CNS(=O)(=O)c1cccc([C@H](C)Nc2ccc(C(=O)N3CC[C@H](N(C)C(C)=O)C3)cn2)c1` [Example 1.23], for which the values for the IC50 in experiment [1] and in experiment [2] were 5210 pM and 260 pM, respectively.

Regarding `CN(C(=O)C1CC1)[C@H]1CCN(C(=O)c2ccc(NCc3ccc(N)nc3)nc2)C1` [Example 1.24], the IC50 was 1440 pM in experiment [1] and 270 pM in experiment [2].

As for `CN(C(=O)C1(C)CCC1)[C@H]1CCN(C(=O)c2ccc(NC3CCc4[nH]ncc43)nc2)C1` (stereo partly drawn) [Example 1.26], the concentration for half-maximal inhibition (IC50) in experiment [1] stood at 1980 pM; in experiment [2], 290 pM.

Take `CC(=O)N(C)[C@H]1CCN(C(=O)c2ccc(NC(C)c3cccc(S(N)(=O)=O)c3)nc2)C1` (stereo partly drawn) [Example 1.27]: the IC50 in experiment [1] was 4390 pM; in experiment [2], 300 pM.
